Target: T1, GR (Homo sapiens, UniProt P04150)
T1 construct: expressed in transfected cells; host or cells: CHO-K1
T1 sequence (P04150 1-777): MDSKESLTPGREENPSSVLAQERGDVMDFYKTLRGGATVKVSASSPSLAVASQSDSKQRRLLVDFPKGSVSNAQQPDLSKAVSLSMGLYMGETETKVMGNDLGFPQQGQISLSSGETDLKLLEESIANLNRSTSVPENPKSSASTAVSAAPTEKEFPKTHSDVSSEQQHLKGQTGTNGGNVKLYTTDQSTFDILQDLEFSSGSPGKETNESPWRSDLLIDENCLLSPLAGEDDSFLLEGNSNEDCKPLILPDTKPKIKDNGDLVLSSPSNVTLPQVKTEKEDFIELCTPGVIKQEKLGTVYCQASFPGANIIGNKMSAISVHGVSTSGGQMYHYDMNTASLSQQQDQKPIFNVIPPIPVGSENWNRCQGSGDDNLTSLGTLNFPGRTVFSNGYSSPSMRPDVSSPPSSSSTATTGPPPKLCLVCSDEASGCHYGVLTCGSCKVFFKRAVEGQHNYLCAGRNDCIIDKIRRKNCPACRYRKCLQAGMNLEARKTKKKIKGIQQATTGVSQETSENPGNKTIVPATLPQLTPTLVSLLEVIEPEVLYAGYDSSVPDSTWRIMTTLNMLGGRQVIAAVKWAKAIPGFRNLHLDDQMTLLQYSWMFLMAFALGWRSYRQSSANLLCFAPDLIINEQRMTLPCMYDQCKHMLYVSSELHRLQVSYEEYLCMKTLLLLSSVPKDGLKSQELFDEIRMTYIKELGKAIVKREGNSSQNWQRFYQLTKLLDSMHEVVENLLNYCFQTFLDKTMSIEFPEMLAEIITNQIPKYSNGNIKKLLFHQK
Assay: In Vitro GR Luciferase Reporter Assay (antagonist mode, CHO-K1-GR-MMTV-Luc reporter cells)
Type: cell-based
Details: antagonist assay with 10 nM Dexamethasone, 18-24 hours
Source text: Example A: In Vitro GR Luciferase Reporter Assay
Cell Line: CHO-K1-GR-MMTV-Luc reporter cells
Culture Media: DMEM (with phenol red)+10% FBS
Assay Media: DMEM (without phenol red)+10% CSS
Culture CHO-K1I-GR-MMTV-Luc reporter cells in 15 cm plates in Culture Media at conditions less than 90% confluence.
Prepare 200×DMSO 1:5 serial dilutions of control and test compounds in 96-well non-sterile V bottom plate in DMSO, 8serial dilutions for each compound.
Prepare 5× Assay Media diluted compound serial dilutions in 96-well non-sterile V bottom plate: Add 97.5 uL/well of Assay Media into 96-well then add 2.5 ul of 200× concentration of compounds and mix well.
Seed cells for Antagonist Assay: […] CHO-K1-GR-MMTV-Luc reporter cells were seeded in a Corning 3707 flat clear bottom 384-well white TC plate in 20 ul of Assay Media containing 12.5 nM Dexamethasone (final concentration=10 nM).
Add compounds: 5 ul of assay media diluted compounds were added to appropriate wells and followed a quick spin (1000 rpm, 10 sec) to bring media and cells to the bottom of plate. The plates were covered with SealMate film to avoid evaporation and placed in 37° C. incubator for approximately 18-24 hours.
Read plates: Equilibrate appropriate amount of Promega OneGlo luciferase reagent to room temperature. Remove the plates from incubator and add 25 uL of OneGlo reagent/well by multiple channel pipette and read the plates with Tecan F500 luminometer within 3 minutes.
The ability of the compounds disclosed herein to inhibit GR activity was quantified and the respective IC50 value was determined. Table 1and Table 2provide the cellular IC50 values of compounds disclosed herein.

| IC50 [µM] | SMILES |
| --- | --- |
| ≤ 0.1 | CC(C)(C)CS(=O)(=O)[C@H]1CCC2=Cc3c(cnn3-c3ccc(F)cc3)C[C@]2(C(=O)c2ccccn2)C1 [Example 49, ((4aS,6S)-1-(4-fluorophenyl)-6-(neopentylsulfonyl)-1,4,5,6,7,8-hexahydro-4aH-benzo[f]indazol-4a-yl)(pyridin-2-yl)methanone] |
| ≤ 0.1 | O=C(c1ccccn1)[C@]12Cc3cnn(-c4ccc(F)cc4)c3C=C1CC[C@H](S(=O)(=O)C1CCCC1)C2 [Example 50, ((4aS,6S)-6-(cyclopentylsulfonyl)-1-(4-fluorophenyl)-1,4,5,6,7,8-hexahydro-4aH-benzo[f]indazol-4a-yl)(pyridin-2-yl)methanone] |
| ≤ 0.1 | Cc1ccc(C(=O)[C@]23Cc4cnn(-c5ccc(F)cc5)c4C=C2CC[C@@H](S(=O)(=O)c2ccccc2)C3)nc1 [Example 51, ((4aS,6R)-1-(4-fluorophenyl)-6-(phenylsulfonyl)-1,4,5,6,7,8-hexahydro-4aH-benzo[f]indazol-4a-yl)(5-methylpyridin-2-yl)methanone] |
| ≤ 0.1 | O=C(c1ccccn1)[C@]12Cc3cnn(-c4ccc(F)cc4)c3C=C1CC[C@H](S(=O)(=O)c1cccnc1)C2 [Example 53, ((4aS,6S)-1-(4-fluorophenyl)-6-(pyridin-3-ylsulfonyl)-1,4,5,6,7,8-hexahydro-4aH-benzo[f]indazol-4a-yl)(pyridin-2-yl)methanone] |
| ≤ 0.1 | O=C(c1cc(C(F)(F)F)ccn1)[C@]12Cc3cnn(-c4ccc(F)cc4)c3C=C1CC[C@H](S(=O)(=O)c1cccnc1)C2 [Example 54, ((4aS,6S)-1-(4-fluorophenyl)-6-(pyridin-3-ylsulfonyl)-1,4,5,6,7,8-hexahydro-4aH-benzo[f]indazol-4a-yl)(4-(trifluoromethyl)pyridin-2-yl)methanone] |
| ≤ 0.1 | O=C(c1ccc(C2CC2)cn1)[C@]12Cc3cnn(-c4ccc(F)cc4)c3C=C1CC[C@H](S(=O)(=O)c1ccccn1)C2 [Example 57, (5-cyclopropylpyridin-2-yl)((4aS,6S)-1-(4-fluorophenyl)-6-(pyridin-2-ylsulfonyl)-1,4,5,6,7,8-hexahydro-4aH-benzo[f]indazol-4a-yl)methanone] |
| ≤ 0.1 | O=C(c1ccc(C(F)(F)F)cn1)[C@]12Cc3cnn(-c4ccc(F)cc4)c3C=C1CC[C@H](S(=O)(=O)c1ccccn1)C2 [Example 58, ((4aS,6S)-1-(4-fluorophenyl)-6-(pyridin-2-ylsulfonyl)-1,4,5,6,7,8-hexahydro-4aH-benzo[f]indazol-4a-yl)(5-(trifluoromethyl)pyridin-2-yl)methanone] |
| ≤ 0.1 | O=C(c1cc(C(F)(F)F)ccn1)[C@]12Cc3cnn(-c4ccc(F)cc4)c3C=C1CC[C@H](S(=O)(=O)C1CCOCC1)C2 [Example 59, ((4aS,6S)-1-(4-fluorophenyl)-6-((tetrahydro-2H-pyran-4-yl)sulfonyl)-1,4,5,6,7,8-hexahydro-4aH-benzo[f]indazol-4a-yl)(4-(trifluoromethyl)pyridin-2-yl)methanone] |
| ≤ 0.1 | CC1(O)CCC(S(=O)(=O)[C@H]2CCC3=Cc4c(cnn4-c4ccc(F)cc4)C[C@]3(C(=O)c3ccccn3)C2)CC1 (stereo partly drawn) [Example 60, ((4aS,6S)-1-(4-fluorophenyl)-6-((4-hydroxy-4-methylcyclohexyl)sulfonyl)-1,4,5,6,7,8-hexahydro-4aH-benzo[f]indazol-4a-yl)(pyridin-2-yl)methanone] |

Second part, the compound before the results:

| SMILES | IC50 [µM] |
| --- | --- |
| O=C(c1ccccn1)[C@]12Cc3cnn(-c4ccc(F)cc4)c3C=C1CC[C@H](S(=O)(=O)c1cccc(Cl)c1)C2 [Example 37, ((4aS,6S)-6-((3-chlorophenyl)sulfonyl)-1-(4-fluorophenyl)-1,4,5,6,7,8-hexahydro-4aH-benzo[f]indazol-4a-yl)(pyridin-2-yl)methanone] | ≤ 0.1 |
| Cc1ccnc(C(=O)[C@]23Cc4cnn(-c5ccc(F)cc5)c4C=C2CC[C@@H](S(=O)(=O)c2ccccc2)C3)c1 [Example 38, ((4aS,6R)-1-(4-fluorophenyl)-6-(phenylsulfonyl)-1,4,5,6,7,8-hexahydro-4aH-benzo[f]indazol-4a-yl)(4-methylpyridin-2-yl)methanone] | ≤ 0.1 |
| Cc1ccnc(C(=O)[C@]23Cc4cnn(-c5ccc(F)cc5)c4C=C2CC[C@H](S(=O)(=O)c2cnn(C)n2)C3)c1 [Example 39, ((4aS,6S)-1-(4-fluorophenyl)-6-((2-methyl-2H-1,2,3-triazol-4-yl)sulfonyl)-1,4,5,6,7,8-hexahydro-4aH-benzo[f]indazol-4a-yl)(4-methylpyridin-2-yl)methanone] | ≤ 0.1 |
| CC(C)(C)S(=O)(=O)[C@H]1CCC2=Cc3c(cnn3-c3ccc(F)cc3)C[C@]2(C(=O)c2ccccn2)C1 [Example 40, ((4aS,6S)-6-(tert-butylsulfonyl)-1-(4-fluorophenyl)-1,4,5,6,7,8-hexahydro-4aH-benzo[f]indazol-4a-yl)(pyridin-2-yl)methanone] | ≤ 0.1 |
| O=C(c1cc(C(F)(F)F)ccn1)[C@]12Cc3cnn(-c4ccc(F)cc4)c3C=C1CC[C@H](S(=O)(=O)c1ccccn1)C2 [Example 41, ((4aS,6S)-1-(4-fluorophenyl)-6-(pyridin-2-ylsulfonyl)-1,4,5,6,7,8-hexahydro-4aH-benzo[f]indazol-4a-yl)(4-(trifluoromethyl)pyridin-2-yl)methanone] | ≤ 0.1 |
| Cc1ccc(C(=O)[C@]23Cc4cnn(-c5ccc(F)cc5)c4C=C2CC[C@H](S(=O)(=O)c2ccccn2)C3)nc1 [Example 42, ((4aS,6S)-1-(4-fluorophenyl)-6-(pyridin-2-ylsulfonyl)-1,4,5,6,7,8-hexahydro-4aH-benzo[f]indazol-4a-yl)(5-methylpyridin-2-yl)methanone] | ≤ 0.1 |
| O=C(c1ccccn1)[C@]12Cc3cnn(-c4ccc(F)cc4)c3C=C1CC[C@H](S(=O)(=O)c1cc(C(F)(F)F)ccn1)C2 [Example 43, ((4aS,6S)-1-(4-fluorophenyl)-6-((4-(trifluoromethyl)pyridin-2-yl)sulfonyl)-1,4,5,6,7,8-hexahydro-4aH-benzo[f]indazol-4a-yl)(pyridin-2-yl)methanone] | ≤ 0.1 |
| Cc1ccnc(C(=O)[C@]23Cc4cnn(-c5ccc(F)cc5)c4C=C2CC[C@H](S(=O)(=O)c2cccc(Cl)c2)C3)c1 [Example 44, ((4aS,6S)-6-((3-chlorophenyl)sulfonyl)-1-(4-fluorophenyl)-1,4,5,6,7,8-hexahydro-4aH-benzo[f]indazol-4a-yl)(4-methylpyridin-2-yl)methanone] | ≤ 0.1 |
| Cc1ccc(C(=O)[C@]23Cc4cnn(-c5ccc(F)cc5)c4C=C2CC[C@H](S(=O)(=O)c2ccccc2)C3)nc1 [Example 45, ((4aS,6S)-1-(4-fluorophenyl)-6-(phenylsulfonyl)-1,4,5,6,7,8-hexahydro-4aH-benzo[f]indazol-4a-yl)(5-methylpyridin-2-yl)methanone] | ≤ 0.1 |
| O=C(c1ccccn1)[C@]12Cc3cnn(-c4ccc(F)cc4)c3C=C1CC[C@H](S(=O)(=O)C1CCOCC1)C2 [Example 46, ((4aS,6S)-1-(4-fluorophenyl)-6-((tetrahydro-2H-pyran-4-yl)sulfonyl)-1,4,5,6,7,8-hexahydro-4aH-benzo[f]indazol-4a-yl)(pyridin-2-yl)methanone] | ≤ 0.1 |
| O=C(c1ccccn1)[C@]12Cc3cnn(-c4ccc(F)cc4)c3C=C1CC[C@H](S(=O)(=O)c1ccncc1)C2 [Example 47, ((4aS,6S)-1-(4-fluorophenyl)-6-(pyridin-4-ylsulfonyl)-1,4,5,6,7,8-hexahydro-4aH-benzo[f]indazol-4a-yl)(pyridin-2-yl)methanone] | ≤ 0.1 |
| Cc1ccnc(C(=O)[C@]23Cc4cnn(-c5ccc(F)cc5)c4C=C2CC[C@H](S(=O)(=O)c2ccncc2)C3)c1 [Example 48, ((4aS,6S)-1-(4-fluorophenyl)-6-(pyridin-4-ylsulfonyl)-1,4,5,6,7,8-hexahydro-4aH-benzo[f]indazol-4a-yl)(4-methylpyridin-2-yl)methanone] | ≤ 0.1 |
